12 compounds from ChEMBL document CHEMBL1136226, “Design and synthesis of new benzimidazole-arylpiperazine derivatives acting as mixed 5-HT1A/5-HT3 ligands” (Bioorg Med Chem Lett, 2003) can be followed below.

Assay [1] addresses T1, 5-hydroxytryptamine receptor 1A (Rattus norvegicus, UniProt P19327).
T1 sequence (P19327 whole entry): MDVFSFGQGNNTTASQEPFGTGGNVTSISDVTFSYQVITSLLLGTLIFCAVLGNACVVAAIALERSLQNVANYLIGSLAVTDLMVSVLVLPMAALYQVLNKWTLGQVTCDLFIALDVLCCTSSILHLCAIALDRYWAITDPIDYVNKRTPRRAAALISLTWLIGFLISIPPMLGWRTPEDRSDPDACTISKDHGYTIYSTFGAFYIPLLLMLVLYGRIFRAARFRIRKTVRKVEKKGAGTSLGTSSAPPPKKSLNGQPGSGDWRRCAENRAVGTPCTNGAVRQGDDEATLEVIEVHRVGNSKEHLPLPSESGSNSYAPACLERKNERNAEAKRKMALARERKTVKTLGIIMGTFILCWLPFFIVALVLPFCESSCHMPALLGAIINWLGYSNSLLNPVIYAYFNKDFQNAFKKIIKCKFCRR
Briefly: Displacement of [3H]8-OH-DPAT from 5-hydroxytryptamine 1A receptor of rat cerebral cortex membranes. In kind it is cell membranes, Membrane. On the technique in general: Displacement assays read how much labelled ligand stays bound in the presence of the test substance.

For assay [2], the target named is T2, Serotonin 3 (5-HT3) receptor (Rattus norvegicus, UniProt P35563+Q9JJ16).
T2 sequence (P35563 whole entry): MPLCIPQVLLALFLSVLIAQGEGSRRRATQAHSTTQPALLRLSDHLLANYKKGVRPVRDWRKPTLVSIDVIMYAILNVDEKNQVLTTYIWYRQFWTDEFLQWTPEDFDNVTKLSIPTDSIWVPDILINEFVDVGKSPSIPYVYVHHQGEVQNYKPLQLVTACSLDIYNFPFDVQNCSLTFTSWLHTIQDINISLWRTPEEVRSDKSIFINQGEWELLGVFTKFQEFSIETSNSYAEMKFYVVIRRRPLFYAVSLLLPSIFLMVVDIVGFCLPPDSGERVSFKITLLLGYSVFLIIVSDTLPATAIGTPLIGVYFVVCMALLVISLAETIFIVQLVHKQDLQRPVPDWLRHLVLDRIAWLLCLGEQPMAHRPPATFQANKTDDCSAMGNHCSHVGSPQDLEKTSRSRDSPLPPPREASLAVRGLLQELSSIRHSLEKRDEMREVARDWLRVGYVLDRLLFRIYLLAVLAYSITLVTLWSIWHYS
T2 sequence (Q9JJ16 whole entry): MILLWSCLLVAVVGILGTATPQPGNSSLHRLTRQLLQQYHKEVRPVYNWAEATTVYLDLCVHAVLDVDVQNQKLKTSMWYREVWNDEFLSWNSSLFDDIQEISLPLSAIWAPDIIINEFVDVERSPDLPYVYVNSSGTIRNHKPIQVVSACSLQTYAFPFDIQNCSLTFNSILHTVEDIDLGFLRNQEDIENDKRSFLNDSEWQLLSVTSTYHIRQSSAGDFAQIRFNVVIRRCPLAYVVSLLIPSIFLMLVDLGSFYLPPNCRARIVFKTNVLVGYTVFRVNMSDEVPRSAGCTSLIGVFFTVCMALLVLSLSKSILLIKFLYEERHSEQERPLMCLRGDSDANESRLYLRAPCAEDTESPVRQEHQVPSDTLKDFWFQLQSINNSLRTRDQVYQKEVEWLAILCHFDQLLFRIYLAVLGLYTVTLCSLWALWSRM
Briefly: Binding affinity for 5-HT3 receptor by displacement of [3H]-LY 278584 in rat cerebral cortex membranes. In kind it is cell membranes, Membrane.

Assay [3] is filed under the species Cavia porcellus. Briefly: Blockade of isolated longitudinal muscle myenteric plexus contraction from guinea-pig ileum. It counts as functional. The following applies: Muscle tissue.

In general, Ki refers to the dissociation constant of the complex between target and ligand, obtained from inhibition or displacement. On to `O=C(NC1CN2CCC1CC2)c1cccc2nc(CN3CCN(c4cccc(C(F)(F)F)c4)CC3)[nH]c12` (centres undefined), for which the inhibition constant Ki in assay [1] was > 10000 nM; in assay [2], 23.9 nM.

`O=C(NC1CN2CCC1CC2)c1cccc2[nH]c(CN3CCN(c4cccc(Cl)c4)CC3)nc12` (centres undefined): the Ki in assay [1] is > 10000 nM; in assay [2], 18.3 nM.

With `O=C(NC1CN2CCC1CC2)c1cccc2nc(CN3CCN(c4ccccc4)CC3)[nH]c12` (centres undefined), the Ki in assay [1] was > 1000 nM; in assay [2], 23.1 nM.

On to `O=C(NC1CN2CCC1CC2)c1cccc2[nH]c(CN3CCN(c4ccc5c(c4)OCO5)CC3)nc12` (centres undefined), for which the Ki in assay [1] stood at 467 nM; in assay [2], 24 nM.

As for `O=C(NC1CN2CCC1CC2)c1cccc2nc(CN3CCN(c4cccc5nc[nH]c45)CC3)[nH]c12` (centres undefined), the Ki in assay [1] is 148 nM; in assay [2], > 1000 nM.

For `O=C(NC1CN2CCC1CC2)c1cccc2[nH]c(CN3CCN(c4cccc5ccccc45)CC3)nc12` (centres undefined), the Ki was > 1000 nM in assay [1] and 32.5 nM in assay [2].

In general, IC50 refers to the midpoint of a concentration-inhibition curve. A lower IC50 goes with inhibition by little substance. For the compound `CCOc1ccccc1N1CCN(Cc2nc3c(C(=O)NC4CN5CCC4CC5)cccc3[nH]2)CC1` (centres undefined), the figures for the Ki in assay [1] and in assay [2] were 18 nM and 27.2 nM, respectively. In assay [3], this compound returned an IC50 of 190 nM.

Consider `CCCOc1ccccc1N1CCN(Cc2nc3c(C(=O)NC4CN5CCC4CC5)cccc3[nH]2)CC1` (centres undefined), for which the Ki in assay [1] came to 56.1 nM; in assay [2] it was 24.6 nM.

The compound `Cc1nccn1CC1CCc2c(c3ccccc3n2C)C1=O` (centres undefined) [ONDANSETRON] registered an IC50 in assay [3] of 240 nM.

In the case of `CC(C)Oc1ccccc1N1CCN(Cc2nc3cccc(C(=O)NC4CN5CCC4CC5)c3[nH]2)CC1` (centres undefined), the Ki was 34.4 nM in assay [1] and 62.1 nM in assay [2].

Take `CCCCOc1ccccc1N1CCN(Cc2nc3c(C(=O)NC4CN5CCC4CC5)cccc3[nH]2)CC1` (centres undefined): the figures for the Ki in assay [1] and in assay [2] were 45.9 nM and 15.1 nM, respectively.

Consider `COc1ccccc1N1CCN(Cc2nc3cccc(C(=O)NC4CN5CCC4CC5)c3[nH]2)CC1` (centres undefined), for which the figures for the inhibition constant Ki in assay [1] and in assay [2] were 150 nM and 10.3 nM, respectively.
